Reference: US20090306133A1, “New Acetyl Coenzyme A Carboxylase (ACC) Inhibitors And Uses In Treatments Of Obesity And Diabetes Mellitus - 087” (ASTRAZENECA AB, priority 2007, published 2009)

Assays:
[1] = target: Human recombinant Acetyl-CoA Carboxylase 2 (ACC2) (Homo sapiens, UniProt O00763); assay: Assay Y: ACC2 inhibition, inorganic phosphate (Malachite Green); type: biochemical; conditions: Assay Y: room temperature, 3 hr, 15 min preincubation
Protocol: (§1) Preincubation of 6 μL enzyme together with 0.3 μL compound for 15 min was done before the reaction was initiated by the addition of 4 μL substrate. […] After 3 hr the reaction was stopped by addition of 60 μL of water followed by 30 μL Malachite Green solution. The Malachite Green solution was prepared by mixing 16.4 mL ammonium molybdate solution (7.5%), 1.64 mL Tween (11%) with 82 mL Malachite Green/H2SO4-solution (0.7 g Malachite Green to 1000 mL of 10% (v/v) H2SO4). Plates were left for 10 min at room temperature before reading the absorbance at 670 nm. All compounds were tested in triplicate at 10 different concentrations. Control compound (0, 50 and 100% effect) was included on each plate. […] An IC50 value was derived by non-linear regression curve fitting using the following equation: […]))) where A is the non-specific binding, B is the total binding, C is the IC50 and D is the slope. Saturation binding Kd and Bmax were derived using the equation y=((B1 max*x)/(Kd+x)).

[2] = target: Human recombinant Acetyl-CoA Carboxylase 1 (ACC1) (Homo sapiens, UniProt Q13085); assay: Assay Y: ACC1 inhibition, inorganic phosphate (Malachite Green); type: biochemical; conditions: Assay Y: room temperature, 3 hr, 15 min preincubation
Protocol: as §1

Chain of Human recombinant Acetyl-CoA Carboxylase 2 (ACC2) (O00763 whole entry): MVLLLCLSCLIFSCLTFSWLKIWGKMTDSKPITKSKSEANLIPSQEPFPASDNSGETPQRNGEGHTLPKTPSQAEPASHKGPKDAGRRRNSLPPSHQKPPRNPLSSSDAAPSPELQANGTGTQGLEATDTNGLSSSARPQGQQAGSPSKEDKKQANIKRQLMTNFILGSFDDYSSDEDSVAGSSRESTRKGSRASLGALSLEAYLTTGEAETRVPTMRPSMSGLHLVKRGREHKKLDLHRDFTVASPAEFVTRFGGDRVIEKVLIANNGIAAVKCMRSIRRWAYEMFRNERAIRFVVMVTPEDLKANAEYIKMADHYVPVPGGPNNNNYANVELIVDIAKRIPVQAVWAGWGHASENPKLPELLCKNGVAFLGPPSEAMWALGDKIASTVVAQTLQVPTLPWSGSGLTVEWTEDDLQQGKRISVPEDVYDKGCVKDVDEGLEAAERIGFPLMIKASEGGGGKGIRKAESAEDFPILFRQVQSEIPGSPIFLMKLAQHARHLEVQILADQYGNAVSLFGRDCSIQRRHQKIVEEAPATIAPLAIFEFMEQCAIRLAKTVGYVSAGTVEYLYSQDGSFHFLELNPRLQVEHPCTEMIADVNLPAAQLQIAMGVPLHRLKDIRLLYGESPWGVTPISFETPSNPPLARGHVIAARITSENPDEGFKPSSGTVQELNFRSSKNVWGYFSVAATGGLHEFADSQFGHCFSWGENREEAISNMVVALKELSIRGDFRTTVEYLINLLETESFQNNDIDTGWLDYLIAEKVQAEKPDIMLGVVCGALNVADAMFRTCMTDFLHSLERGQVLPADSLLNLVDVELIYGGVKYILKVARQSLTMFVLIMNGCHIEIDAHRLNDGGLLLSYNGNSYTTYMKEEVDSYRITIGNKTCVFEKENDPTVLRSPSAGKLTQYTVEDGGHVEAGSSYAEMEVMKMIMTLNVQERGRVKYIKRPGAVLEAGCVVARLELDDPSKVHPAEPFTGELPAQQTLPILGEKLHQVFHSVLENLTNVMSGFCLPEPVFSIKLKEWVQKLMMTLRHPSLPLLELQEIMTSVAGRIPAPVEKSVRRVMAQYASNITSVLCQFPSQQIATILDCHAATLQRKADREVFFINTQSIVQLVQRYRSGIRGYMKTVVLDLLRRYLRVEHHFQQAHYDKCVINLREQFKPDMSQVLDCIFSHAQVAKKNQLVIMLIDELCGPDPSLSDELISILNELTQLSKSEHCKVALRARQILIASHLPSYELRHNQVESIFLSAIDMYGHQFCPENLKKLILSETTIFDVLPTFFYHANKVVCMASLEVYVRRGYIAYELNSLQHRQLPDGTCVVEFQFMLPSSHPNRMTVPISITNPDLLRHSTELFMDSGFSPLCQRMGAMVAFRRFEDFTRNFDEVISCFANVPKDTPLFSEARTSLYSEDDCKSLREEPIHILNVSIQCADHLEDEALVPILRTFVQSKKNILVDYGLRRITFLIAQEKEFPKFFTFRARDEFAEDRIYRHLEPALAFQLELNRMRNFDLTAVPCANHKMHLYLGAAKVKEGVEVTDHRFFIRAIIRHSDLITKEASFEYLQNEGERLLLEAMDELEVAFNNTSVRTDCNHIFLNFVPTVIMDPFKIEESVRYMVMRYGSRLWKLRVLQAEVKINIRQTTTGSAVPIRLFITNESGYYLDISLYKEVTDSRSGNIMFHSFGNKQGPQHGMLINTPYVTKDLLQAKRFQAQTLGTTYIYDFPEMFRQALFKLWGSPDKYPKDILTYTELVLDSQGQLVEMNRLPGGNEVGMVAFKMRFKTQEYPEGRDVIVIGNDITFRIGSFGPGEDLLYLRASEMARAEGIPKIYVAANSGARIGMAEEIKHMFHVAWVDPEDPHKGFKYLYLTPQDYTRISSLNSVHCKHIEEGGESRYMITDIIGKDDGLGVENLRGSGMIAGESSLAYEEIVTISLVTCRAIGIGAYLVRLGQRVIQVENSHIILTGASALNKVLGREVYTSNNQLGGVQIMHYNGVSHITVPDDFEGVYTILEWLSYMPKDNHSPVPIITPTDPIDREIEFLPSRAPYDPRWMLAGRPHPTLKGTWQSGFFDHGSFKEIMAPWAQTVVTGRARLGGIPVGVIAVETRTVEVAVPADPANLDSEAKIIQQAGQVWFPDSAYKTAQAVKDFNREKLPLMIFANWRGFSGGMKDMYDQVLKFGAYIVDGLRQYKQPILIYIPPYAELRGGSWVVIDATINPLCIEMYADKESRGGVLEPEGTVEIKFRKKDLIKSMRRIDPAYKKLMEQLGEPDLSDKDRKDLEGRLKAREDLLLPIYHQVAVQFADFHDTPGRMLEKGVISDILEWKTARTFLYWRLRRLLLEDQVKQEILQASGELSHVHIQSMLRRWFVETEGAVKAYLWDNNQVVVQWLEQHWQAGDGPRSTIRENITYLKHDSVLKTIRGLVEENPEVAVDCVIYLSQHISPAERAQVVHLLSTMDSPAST

Structure (SMILES) | IC50 [1] [nM] | IC50 [2] [nM]
CC(=O)N1CCN(c2ccc(-c3cc(C(=O)NC[C@H]4CC[C@H](CNC(=O)OC(C)(C)C)CC4)c4ccccc4n3)cn2)CC1 [Example 142, tert-Butyl [(trans-4-{[({2-[6-(4-acetylpiperazin-1-yl)pyridin-3-yl]quinolin-4-yl}carbonyl)amino]methyl}cyclohexyl)methyl]carbamate] | 130 | > 20000
NS(=O)(=O)c1ccc(-c2cc(C(=O)NC[C@H]3CC[C@H](CNC(=O)O[C@H]4CCOC4)CC3)c3ccccc3n2)cc1 [Example 139, (3S)-Tetrahydrofuran-3-yl[(trans-4-{[({2-[4-(aminosulfonyl)phenyl]-quinolin-4-yl}carbonyl)amino]-methyl}cyclohexyl)-methyl]carbamate] | 530 | 3340
CN(C)CCNc1ccc(-c2cc(C(=O)NC[C@H]3CC[C@H](CNC(=O)OC(C)(C)C)CC3)c3ccccc3n2)cn1 [Example 146, tert-Butyl({trans-4-[({[2-(6-{[2-(dimethylamino)ethyl]-amino}pyridin-3-yl)quinolin-4-yl]carbonyl}amino)-methyl]cyclohexyl}-methyl)carbamate] | 30 | 180
CC(C)(C)OC(=O)NC[C@H]1CC[C@H](CNC(=O)c2cc(-c3ccc(CC(=O)O)cc3)nc3ccccc23)CC1 [Example 107, [4-(4-{[(trans-4-{[(tert-Butoxycarbonyl)amino]methyl}cyclohexyl)methyl]-carbamoyl}quinolin-2-yl)phenyl]acetic Acid] | 210 | 2620
CCOC(=O)NC[C@H]1CC[C@H](CNC(=O)c2cc(-c3ccc(C(=O)N(C)C)cc3)nc3ccccc23)CC1 [Example 18, Ethyl [(trans-4-{[({2-[4-(dimethylcarbamoyl)phenyl]quinolin-4-yl}carbonyl)amino]-methyl}cyclohexyl)methyl]carbamate] | 1800 | 4850
CN(C)CCCOc1cc(C(=O)NC[C@H]2CC[C@H](CNC(=O)OC(C)(C)C)CC2)c2ccccc2n1 [Example 181, tert-Butyl[(trans-4-{[({2-[3-(dimethylamino)-propoxy]quinolin-4-yl}carbonyl)amino]-methyl}cyclohexyl)-methyl]carbamate] | 1340 | 12300
CC(C)(C)OC(=O)NC[C@H]1CC[C@H](CNC(=O)c2ccnc(-c3ccc(C(N)=O)cc3)c2)CC1 [Example 50, tert-Butyl {[trans-4-({[2-(4-carbamoylphenyl)isonicotinoyl]amino}methyl)cyclohexyl]-methyl}carbamate] | 6820 | 5300
COc1ccc(-c2cc(C(=O)NC[C@H]3CC[C@H](CNC(=O)OC(C)(C)C)CC3)ccn2)c(OC)c1 [Example 47, tert-Butyl {[trans-4-({[2-(2,4-dimethoxyphenyl)isonicotinoyl]amino}methyl)cyclohexyl]methyl}carbamate] | 9850 | 14100
CC(C)(C)OC(=O)NC[C@H]1CC[C@H](CNC(=O)c2cc(-c3cccc(CN)c3)nc3ccccc23)CC1 [Example 39, tert-Butyl [(trans-4-{[({2-[3-(aminomethyl)phenyl]quinolin-4-yl}carbonyl)amino]-methyl}cyclohexyl)methyl]carbamate] | 20 | 220
CN1CCN(c2ccc(-c3cc(C(=O)NC[C@H]4CC[C@H](CNC(=O)OCC(F)F)CC4)c4ccccc4n3)cn2)CC1 [Example 117, 2,2-Difluoroethyl[(trans-4-{[({2-[6-(4-methylpiperazin-1-yl)pyridin-3-yl]quinolin-4-yl}carbonyl)amino]methyl}cyclohexyl)methyl]carbamate] | 410 | 960
CN(C)CCOc1ccc(-c2cc(C(=O)NC[C@H]3CC[C@H](CNC(=O)OC(C)(C)C)CC3)c3ccccc3n2)cn1 [Example 184, tert-Butyl{[trans-4-({[(2-{6-[2-(dimethylamino)ethoxy]pyridin-3-yl}quinolin-4-yl)carbonyl]amino}-methyl)cyclohexyl]-methyl}carbamate] | 40 | 210
CN1CCN(c2ccc(-c3cc(C(=O)NC[C@H]4CC[C@H](CNC(=O)OC(C)(C)C)CC4)c4ccccc4n3)cn2)CC1 [Example 1, tert-butyl [(trans-4-{[({2-[6-(4-methylpiperazin-1-yl)pyridin-3-yl]quinolin-4-yl}carbonyl)amino]methyl}cyclohexyl)methyl]carbamate] | 50 | 200
CN1CCN(CCCOc2cc(C(=O)NC[C@H]3CC[C@H](CNC(=O)OC(C)(C)C)CC3)c3ccccc3n2)CC1 [Example 180, tert-Butyl [(trans-4-{[({2-[3-(4-methylpiperazin-1-yl)propoxy]quinolin-4-yl}carbonyl)amino]methyl}cyclohexyl)methyl]carbamate] | 1060 | 6910
COc1ccc(-c2cc(C(=O)NC[C@H]3CC[C@H](CNC(=O)OC(C)(C)C)CC3)ccn2)cc1 [Example 42, tert-Butyl {[trans-4-({[2-(4-methoxyphenyl)isonicotinoyl]amino}methyl)cyclo-hexyl]methyl}carbamate] | 6140 | 12800
CCOC(=O)NC[C@H]1CC[C@H](CNC(=O)c2cc(-c3ccc(OCC)cc3)nc3ccccc23)CC1 [Example 30, Ethyl ({trans-4-[({[2-(4-ethoxyphenyl)quinolin-4-yl]carbonyl}amino)methyl]-cyclohexyl}methyl)carbamate] | 1290 | > 20000
Cc1nc(-c2ccc(S(=O)(=O)NC[C@H]3CC[C@H](CNC(=O)OC(C)(C)C)CC3)s2)cs1 [Example 70, tert-Butyl ({trans-4-[({[5-(2-methyl-1,3-thiazol-4-yl)-2-thienyl]sulfonyl}amino)-methyl]cyclohexyl}methyl)carbamate] | 2850 | > 20000
CC(C)(C)OC(=O)NC[C@H]1CC[C@H](CNC(=O)c2cc(-c3ccc(NCCO)nc3)nc3ccccc23)CC1 [Example 143, tert-Butyl{[trans-4-({[(2-{6-[(2-hydroxyethyl)amino]pyridin-3-yl}quinolin-4-yl)carbonyl]amino}methyl)cyclohexyl]methyl}carbamate] | 30 | 360
CN1CCN(CCOc2cc(C(=O)NC[C@H]3CC[C@H](CNC(=O)OC(C)(C)C)CC3)c3ccccc3n2)CC1 [Example 182, tert-Butyl[(trans-4-{[({2-[2-(4-methylpiperazin-1-yl)ethoxy]quinolin-4-yl}carbonyl)amino]methyl}cyclohexyl)methyl]carbamate] | 1760 | 6430
CCOc1ccc(-c2cc(C(=O)NC[C@H]3CC[C@H](CNC(=O)OC(C)(C)C)CC3)ccn2)cn1 [Example 46, tert-Butyl {[trans-4-({[(6′-ethoxy-2,3′-bipyridin-4-yl)carbonyl]amino}methyl)cyclohexyl]methyl}carbamate] | 9530 | > 20000
CC(C)(C)OC(=O)NC[C@H]1CC[C@H](CNC(=O)c2cc(-c3cc[n+]([O-])cc3)nc3ccccc23)CC1 [Example 94, tert-Butyl ({trans-4-[({[2-(1-oxidopyridin-4-yl)quinolin-4-yl]carbonyl}amino)methyl]-cyclohexyl}methyl)carbamate] | 930 | 5470
